We go through twelve compounds from ChEMBL document CHEMBL2412960, “Inhibition of Mycobacterium tuberculosis strains H37Rv and MDR MS-115 by a new set of C5 modified pyrimidine nucleosides” (Bioorg Med Chem, 2013).

Molecules are shown by their SMILES. Values after ≈ are worked out from the molar mass of the structure shown. Active and inactive are the calls of the source. No cut-off for these calls is given here.

The subject of test [1] is Mycobacterium tuberculosis. Briefly: Bacteriostatic activity against rifampicin, isoniazid, streptomycin, ethambutol and pyrazinamide-resistant Mycobacterium tuberculosis MS-115 assessed as growth inhibition. The test is classed as functional.
Test [2] relates to Mycobacterium tuberculosis. The experiment in a line: Bacteriostatic activity against rifampicin, isoniazid, streptomycin, ethambutol and pyrazinamide-resistant Mycobacterium tuberculosis MS-115 assessed as growth inhibition at 2 to 200 ug/mL relative to control. Type of test: functional, organism-based.
Test [3] relates to Mycobacterium tuberculosis. Briefly: Bacteriostatic activity against rifampicin, isoniazid, streptomycin, ethambutol and pyrazinamide-resistant Mycobacterium tuberculosis MS-115 assessed as growth inhibition at 5 ug/mL relative to control. Type of test: functional. The conditions noted are these: read-out: GI.
The subject of test [4] is Mycobacterium tuberculosis. The experiment in a line: Bacteriostatic activity against rifampicin, isoniazid, streptomycin, ethambutol and pyrazinamide-resistant Mycobacterium tuberculosis MS-115 assessed as growth inhibition at 10 ug/mL relative to control. The conditions noted are these: read-out: GI. The test is classed as functional.
Test [5] has as its system Mycobacterium tuberculosis. Briefly: Bacteriostatic activity against rifampicin, isoniazid, streptomycin, ethambutol and pyrazinamide-resistant Mycobacterium tuberculosis MS-115 assessed as growth inhibition at 20 ug/mL relative to control. To be noted: read-out: GI. Type of test: functional.
The subject of test [6] is Mycobacterium tuberculosis. Briefly: Bacteriostatic activity against rifampicin, isoniazid, streptomycin, ethambutol and pyrazinamide-resistant Mycobacterium tuberculosis MS-115 assessed as growth inhibition at 50 ug/mL relative to control. Type of test: functional. To be noted: read-out: GI.
Test [7] relates to Mycobacterium tuberculosis. Briefly: Bacteriostatic activity against rifampicin, isoniazid, streptomycin, ethambutol and pyrazinamide-resistant Mycobacterium tuberculosis MS-115 assessed as growth inhibition at 200 ug/mL relative to control. Type of test: functional. To be noted: read-out: GI.
In test [8] the test system is Mycobacterium tuberculosis. The experiment in a line: Bacteriostatic activity against rifampicin, isoniazid, streptomycin, ethambutol and pyrazinamide-resistant Mycobacterium tuberculosis MS-115 assessed as growth inhibition at 2 ug/mL relative to control. The test is classed as functional. The conditions noted are these: read-out: GI.

For orientation: MIC99 means an inhibitory concentration at the 99% level, which refers to growth in some studies and to a panel of isolates in others. Regarding `NNC(=O)c1ccncc1` [ISONIAZID], in test [1], the MIC99 result is “inactive”. Further, the “growth inhibition (GI)” value in test [2] is “inactive”.

With `CCCCCCCCCCc1cn(Cc2cn([C@H]3C[C@H](O)[C@@H](CO)O3)c(=O)[nH]c2=O)nn1`, the MIC99 in test [1] came out at 10 µg/mL (≈ 22.2 µM). For the same compound, the inhibition of growth at 5 µg/mL in test [3] was 75%. In addition, the inhibition of growth at 10 µg/mL in test [4] is 99%. Besides, in test [5], the inhibition of growth at 20 µg/mL was 100%. In addition, the inhibition of growth at 50 µg/mL in test [6] amounted to 100%.

As for `CCCCCCCCCCc1cn(Cc2cn([C@H]3C[C@H](O)[C@@H](CO)O3)c(=O)nc2N)nn1`, the MIC99 in test [1] turned out to be 50 µg/mL (≈ 111 µM). Also, the inhibition of growth at 20 µg/mL in test [5] was 75%. The inhibition of growth at 50 µg/mL in test [6] was 100%.

`CCCCCCCCCCCCOCc1cn([C@H]2C[C@H](N)[C@@H](CO)O2)c(=O)[nH]c1=O`: the MIC99 in test [1] came out at 20 µg/mL (≈ 47 µM). For the same compound, in test [5], the inhibition of growth at 20 µg/mL came to 100%. Also, in test [6], the inhibition of growth at 50 µg/mL came to 100%. Moreover, the inhibition of growth at 200 µg/mL in test [7] amounted to 100%.

For `CCCCCCCCCCCCc1cn(Cc2cn([C@H]3C[C@H](O)[C@@H](CO)O3)c(=O)[nH]c2=O)nn1`, the MIC99 in test [1] came to 10 µg/mL (≈ 20.9 µM). Besides, the inhibition of growth at 5 µg/mL in test [3] turned out to be 90%. Moreover, the inhibition of growth at 10 µg/mL in test [4] was 99%. Moreover, the inhibition of growth at 20 µg/mL in test [5] was found to be 99%. The inhibition of growth at 50 µg/mL in test [6] turned out to be 100%.

`CCCCCCCCCCCCc1cn(Cc2cn([C@H]3C[C@H](O)[C@@H](CO)O3)c(=O)nc2N)nn1`: the MIC99 in test [1] is 10 µg/mL (≈ 21 µM). In test [4], the inhibition of growth at 10 µg/mL is 99%. In addition, in test [5], the inhibition of growth at 20 µg/mL was determined as 100%. Further, the inhibition of growth at 50 µg/mL in test [6] turned out to be 100%.

With `CO[C@H]1/C=C/O[C@@]2(C)Oc3c(C)c(O)c4c(O)c(c(/C=N/N5CCN(C)CC5)c(O)c4c3C2=O)NC(=O)/C(C)=C\C=C\[C@H](C)[C@H](O)[C@@H](C)[C@@H](O)[C@@H](C)[C@H](OC(C)=O)[C@@H]1C` [RIFAMPIN], the MIC99 result in test [1] is “inactive”. In addition, the “growth inhibition (GI)” value in test [2] is “inactive”.

`CC1COc2c(N3CCN(C)CC3)c(F)cc3c(=O)c(C(=O)O)cn1c23` (centres undefined) [OFLOXACIN]: the MIC99 in test [1] was determined as 2 µg/mL (≈ 5.53 µM). Further, the inhibition of growth at 2 µg/mL in test [8] stood at 100%.

For the compound `NC(=O)c1cnccn1`, the “growth inhibition (GI)” value in test [2] was “inactive”.

As to `CN[C@@H]1[C@H](O[C@H]2[C@H](O[C@H]3[C@H](O)[C@@H](O)[C@H](N=C(N)N)[C@@H](O)[C@@H]3N=C(N)N)O[C@@H](C)[C@]2(O)C=O)O[C@@H](CO)[C@H](O)[C@H]1O`, in test [2], the “growth inhibition (GI)” value was “inactive”.

For `CCCCCCCCCCCCOCc1cn([C@H]2C[C@H](O)[C@@H](CO)O2)c(=O)[nH]c1=O`, in test [1], the MIC99 turned out to be 50 µg/mL (≈ 117 µM). Moreover, the inhibition of growth at 2 µg/mL in test [8] came to 50%. Also, in test [6], the inhibition of growth at 50 µg/mL came out at 100%. In addition, the inhibition of growth at 200 µg/mL in test [7] is 100%.

`CC[C@@H](CO)NCCN[C@@H](CC)CO`: the “growth inhibition (GI)” value in test [2] is “inactive”.
